From patent US8778961B2, “O-methylated rapamycin derivatives for alleviation and inhibition of lymphoproliferative disorders” (The Trustees of the University of Pennsylvania, priority 2000, dated 2014)

Assays:
A2D6 line = assay: apoptosis (Annexin V flow cytometry); type: cell-based, human; details: 24 hours
Method: (§1) The cell lines to be examined were cultured with several concentrations of SDZ RAD (0 to 10 nanomolar) for 24-48 hours. The cells were washed with DPBS and stain solution (pH 7.2) containing 3% PEG 6000, 50 micrograms per milliliter DNA fluorochrome propidium iodide (PI; Calbiochem, San Diego, Calif.), annexin V-FITC as described (Douglas et al., 1998, Cytometry 32:57-65) 0.1% (v/v) TRITON™ X (Sigma, St. Louis, Mo.), 4 millimolar citrate buffer pH 7.8, and 360 units per milliliter RNase A (Worthington Biochemicals, Freehold, N.J.) for 30 minutes at 37 C. Next, salt solution pH 7.2 (3% w/v PEG 6000, PI 50 micrograms per milliliter, 0.1% v/v TRITON™ X, and 0.4 molar NaCl) was added, and the cells were incubated at 4° C. in the dark for 1 hour before flow cytometry analysis was performed, as described (Douglas et al., 1998, Cytometry 32:57-65; Kawamata et al., 1998, Blood 91:561-569; Pepper et al., 1998, Leuk. Res. 22:439-444).
(§2) Previous studies have shown that immunosuppressive macrolides as represented by rapamycin can induce or enhance apoptosis stimulated by other agents (Gottschalk et al., 1994, Proc. Natl. Acad. Sci. USA 91:7350-7354; Muthukkumar et al., 1995, Transplantation 60:264-270; Shi et al., 1995, Cancer Res. 55:1982-1988; Hosoi et al., 1999, Cancer Res. 59:886-894). In order to determine if SDZ RAD affects the apoptotic rate in PTLD-like cells, we tested apoptosis-induced surface expression of Annexin V by flow cytometry in the 20A, A1, A2D6 cell lines (FIG. 3). […] In A2D6 line, it led to 11% increase, and in the 20A line to 12% increase. At the highest dose (10 nanomolar), SDZ RAD led to approximately 240% increase in A1 line and 45% increase in both A2D6 and 20A lines.

A1 line = assay: apoptosis (Annexin V flow cytometry); type: cell-based, human; details: 24 hours
Method: as §1, §2

20A line = assay: apoptosis (Annexin V flow cytometry); type: cell-based, human; details: 24 hours
Method: as §1, §2

15A tumors = assay: treatment of established xenotransplanted tumors in SCID mice; type: in vivo; details: 5 milligrams per kilogram daily gavage
Method: Establishment and passaging of the xenotransplanted tumors was performed as described (Douglas et al., 1998, Cytometry 32:57-65; Kawamata et al., 1998, Blood 91:561-569; Pepper et al., 1998, Leuk. Res. 22:439-444). To deplete macrophages and NK cells and to enhance tumor engraftment, SCID mice were injected intraperitoneally with 30-45 milligrams per kilogram of etoposide (Bedford Laboratories, Bedford, Ohio) 4 days prior to implantation of the human EBV^+ B-cell lines (Visonneau et al., 1998, Am. J. Path. 152:1299-1311). Ten million cells of each line employed (see results) were inoculated into mice either intraperitoneally or subcutaneously in 200 microliters of Dulbecco's Phosphate Buffered Saline (DPBS; BioWhittaker, Walkersville, Md.). Ascites or palpable subcutaneous tumors developed 3-5 weeks after cell injection.
Tumor treatment and growth inhibition experiments were performed using fragments of the established subcutaneous tumors (Pasqualucci et al., 1995, Blood 85:2139-2146, Visonneau et al., 1998, Am. J. Path. 152:1299-1311). For this purpose, mice were anesthetized with KETALAR™ (ketamine, Parke-Davis, Morris Plains, N.J.) by intraperitoneal injection of 100 milligrams per kilogram. Next, the primary tumor was aseptically removed and freed from necrotic, fatty and connective tissue and divided into small pieces of roughly equal size and 3-4 pieces per mouse were injected subcutaneously. Treatment of established tumors with SDZ RAD was started when tumors reached 5 millimeters diameter. In growth inhibition experiments, the treatment was initiated 3 days prior to the tumor implantation. Tumor volume in all experiments was determined from the equation: volume=0.4ab^2, where a and b designate respectively long and short diameter of the tumor. The transplanted mice were monitored for tumor growth for a period of up to 2 months. Five milligrams per kilogram of SDZ RAD was administered once a day by gavage as described (Schuurman et al., 1997, Transplantation 64:32-5; Schuler et al. 1997, Transplantation 64:36-42).
Mice were sacrificed by exposure to FORANE™ (isoflurane, Ohmeda, Liberty Place, N.J.) on day 29 in the drug toxicity study, on day 40-55 in the tumor growth inhibition study or when tumors achieved approximately 2 centimeter diameter, or when ulceration of the skin, signs of severe respiratory distress, weakness, or lethargy appeared. Complete autopsy was performed on all mice at the end of the study regardless of their appearance. Tumor and internal organs (spleen, liver, lung, heart, kidney, small and large intestines, femoral bone for bone marrow) were fixed in 10% (v/v) formalin, embedded in paraffin, cut into […] sections, transferred to glass slides, and stained with hematoxylin and eosin. Representative tumor fragments were stained immunohistochemically by standard streptavidin-biotin complex technique using commercially available reagents (Research Genetics, Huntsville, Ala.), antibodies: anti-CD20 (L-26) and LMP-1 (both from DAKO, Carpinteria, Calif.) and Ki67 (mib1; Immunotech, Westbrook, Me.). EBV-encoded RNA (EBER-1), and detected using commercially available reagents.
In order to determine the in vivo effect of SDZ RAD on PTLD-like cells, 15A, 20A, and A1 cell line tumors were implanted into 7-15 SCID mice per cell line. Treatment was initiated once the tumors reached 5 millimeters diameter, which corresponds to a volume of 50 cubic millimeters. SDZ RAD was administered by daily gavage at 5 milligrams per kilogram, which represents a non-toxic and effective immunosuppressive dose (Schuurman et al., 1997, Transplantation 64:32-5; Schuler et al. 1997, Transplantation 64:36-42).

[1] = test system: PTLD-like B cell lines 20A, A1, A2D6, and LCL; assay: cell cycle progression by propidium iodide flow cytometry; type: cell-based, human; details: 48 hours
Method: as §1
Rapamycin and, presumably, O-alkylated rapamycin derivatives such as SDZ RAD, block cell cycle progression at the early stage in normal T cells (Terada et al., 1993, J. Cell Physiol. 154:7-15; Flanagan et al., 1993, Ann. N.Y. Acad. Sci. 696:31-37). […] The effect was drug dose and cell-line type dependent. […] Percentages of cells in the later phases of the cell cycle (G2-M and S) were diminished proportionally. A1 and, to a lesser degree, A2D6 cell line were particularly sensitive to SDZ RAD. Four EBV^+ B-cell lines were cultured for 48 hours with 0-10 nanomolar SDZ RAD, labeled with propidium iodine, and analyzed by flow cytometry.

Compound: CO[C@H]1C[C@@H]2CC[C@@H](C)[C@@](O)(O2)C(=O)C(=O)N2CCCC[C@H]2C(=O)O[C@H]([C@H](C)C[C@@H]2CC[C@@H](OCCO)[C@H](OC)C2)CC(=O)[C@H](C)/C=C(\C)[C@@H](O)[C@@H](OC)C(=O)[C@H](C)C[C@H](C)/C=C/C=C/C=C/1C [SDZ RAD, 40-O-(2-hydroxy)ethyl-rapamycin]
- increase in the number of apoptotic cells (A2D6 line; 1 nanomolar): 11%
- increase in the number of apoptotic cells (A2D6 line; 10 nanomolar): 45%
- increase in the number of apoptotic cells (A1 line; 1 nanomolar): approximately 60%
- percentage of apoptotic cells (A1 line; 1 nanomolar, from 10% without drug): 16%
- increase in the number of apoptotic cells (A1 line; 10 nanomolar): approximately 240%
- increase in the number of apoptotic cells (20A line; 1 nanomolar): 12%
- increase in the number of apoptotic cells (20A line; 10 nanomolar): 45%
- effect on tumor growth (15A tumors; started at 5 millimeters tumor diameter): marked drug-induced delay of the tumor growth but no absolute tumor growth inhibition or regression
- median tumor volume (15A tumors; day 21, treated mice): approximately 240 cubic millimeters
- tumor volume (15A tumors; day 38, treated mice): around 1000 cubic millimeters
- cell cycle progression at the early, G0/G1 phase ([1]; all 4 cell lines, 0-10 nanomolar): markedly inhibited
- increase in the percentage of cells in G0/G1 ([1]; highest dose 10 nanomolar): 10-70%
- increase in the percentage of cells in G0/G1 ([1]; low doses 1-2 nanomolar): 5-25
